One assay has as its target T1, AR (Homo sapiens, UniProt P10275).
T1 sequence (P10275 1-920 T878A): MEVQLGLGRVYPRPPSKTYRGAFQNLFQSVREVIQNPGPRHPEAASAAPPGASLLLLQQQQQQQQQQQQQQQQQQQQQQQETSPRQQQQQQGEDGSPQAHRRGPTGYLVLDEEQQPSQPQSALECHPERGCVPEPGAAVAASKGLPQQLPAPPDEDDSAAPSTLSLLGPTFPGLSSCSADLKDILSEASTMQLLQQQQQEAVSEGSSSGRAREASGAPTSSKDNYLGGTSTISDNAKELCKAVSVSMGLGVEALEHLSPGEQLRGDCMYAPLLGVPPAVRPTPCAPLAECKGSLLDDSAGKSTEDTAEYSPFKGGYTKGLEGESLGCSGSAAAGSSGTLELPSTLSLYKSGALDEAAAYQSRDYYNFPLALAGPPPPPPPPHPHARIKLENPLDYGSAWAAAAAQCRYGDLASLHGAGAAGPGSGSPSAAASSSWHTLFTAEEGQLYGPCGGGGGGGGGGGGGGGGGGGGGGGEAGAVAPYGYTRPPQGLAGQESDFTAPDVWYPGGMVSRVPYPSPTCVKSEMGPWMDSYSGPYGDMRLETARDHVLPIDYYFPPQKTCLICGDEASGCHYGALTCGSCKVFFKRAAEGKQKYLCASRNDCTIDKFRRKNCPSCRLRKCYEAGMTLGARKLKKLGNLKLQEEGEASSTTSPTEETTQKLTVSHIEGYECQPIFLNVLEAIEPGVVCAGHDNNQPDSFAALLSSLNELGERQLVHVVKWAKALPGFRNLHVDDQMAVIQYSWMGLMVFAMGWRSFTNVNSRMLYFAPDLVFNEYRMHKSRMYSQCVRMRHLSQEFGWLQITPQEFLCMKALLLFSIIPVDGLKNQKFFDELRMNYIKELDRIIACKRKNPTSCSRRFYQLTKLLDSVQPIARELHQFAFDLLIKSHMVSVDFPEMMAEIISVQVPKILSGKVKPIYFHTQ
The assay can be described thus: ARE-luciferase reporter assay in LNCaP cells (DHT-induced). The format is cell-based. The note with it: 1 nM DHT, 24 h, normalized to cell viability, read-out: LNCaP ARE-luc IC50. How it is done: (§1) The ARE-luciferase reporter plasmid contains functional AREs (androgen response elements) to which AR binds in response to androgen to induce luciferase activity. LNCaP (Cobioer) cells were transiently transfected with the ARE-luciferase reporter in charcoal stripped FBS/phenol red-free RPMI medium prior to treatment for 24 hours. Then DMSO or test compounds with serial diluted concentrations were added one hour prior to the addition of DHT(1 nM). After 24 h of incubation with DHT, cells were lysed and luciferase activity was assayed using the ONE-Glo™ Luciferase Assay System (Promega) and measured using EnVision Multimode Plate Reader, according to manufacturer's instructions. Values were normalized to cell viability determined by CellTiter-Glo® Luminescent Cell Viability Assay Kit (Promega). […] GraphPad Prism graphing software was used to calculate IC50 values.

Another assay concerns the target T2, AR V7 (Homo sapiens, UniProt P10275).
T2 sequence (P10275 1-644 isoform P10275-3): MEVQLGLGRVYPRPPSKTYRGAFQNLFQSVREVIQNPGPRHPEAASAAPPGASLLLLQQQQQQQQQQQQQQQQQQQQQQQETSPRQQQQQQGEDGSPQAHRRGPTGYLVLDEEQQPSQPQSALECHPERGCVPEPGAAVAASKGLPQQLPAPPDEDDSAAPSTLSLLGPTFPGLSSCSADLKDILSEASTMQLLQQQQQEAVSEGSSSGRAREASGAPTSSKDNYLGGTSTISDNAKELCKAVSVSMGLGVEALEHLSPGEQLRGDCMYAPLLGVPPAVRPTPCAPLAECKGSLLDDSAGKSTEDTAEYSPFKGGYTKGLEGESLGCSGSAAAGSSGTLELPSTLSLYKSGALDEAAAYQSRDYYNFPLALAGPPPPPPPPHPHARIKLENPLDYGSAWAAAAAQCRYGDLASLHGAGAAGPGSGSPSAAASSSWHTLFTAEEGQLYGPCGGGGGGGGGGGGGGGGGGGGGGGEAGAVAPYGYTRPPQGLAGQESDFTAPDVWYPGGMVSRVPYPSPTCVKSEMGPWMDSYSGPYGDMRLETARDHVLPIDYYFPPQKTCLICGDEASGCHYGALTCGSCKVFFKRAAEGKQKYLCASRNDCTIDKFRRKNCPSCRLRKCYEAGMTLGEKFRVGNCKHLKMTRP
The assay can be described thus: ARE-luciferase reporter assay in HEK293T cells cotransfected with AR-V7. The format is cell-based. Set-up: host or cells: HEK293T. To be noted: HEK293T cotransfected with AR-V7, hormone-starved, 24 h; read-out: HEK293T(V7) ARE-luc IC50. How it is done:
as §1
To evaluate the transcriptional activity of AR-V7, HEK293T(Cobioer) cells were transiently cotransfected with an expression vector for AR-V7 and the ARE-luciferase reporter in hormone-starved conditions. For 22Rv1(Cobioer) prostate cancer cell line, which expresses endogenous AR-V7, ARE-luciferase reporter was transiently transfected in hormone-starved conditions. 24 h after transfection, DMSO or test compounds with serial diluted concentrations were added for additional 24 h incubation. Reporter activity was detected and normalized by cell viability as described above. Treatments were normalized to DMSO control activity, and IC50 values were further determined via GraphPad Prism graphing software.

Take `CC(C)(c1ccc(OCc2ccnc(N=S3(=O)CCNCC3)n2)cc1)c1cc(Cl)c(OCCCl)c(C#N)c1` [Compound 6, 3-chloro-2-(2-chloroethoxy)-5-(2-(4-((2-((1-oxido-1λ^6-thiomorpholin-1-ylidene)amino)pyrimidin-4-yl)methoxy)phenyl)propan-2-yl)benzonitrile]: the values for the IC50 on AR and on AR V7 were 3.5 µM and 2.1 µM, respectively.
As for `CC(C)(c1ccc(OCc2ccnc(NS(C)(=O)=O)n2)cc1)c1cc(Cl)c(OCCCl)c(C#N)c1` [Compound AA, N-(4-((4-(2-(3-chloro-4-(2-chloroethoxy)-5-cyanophenyl)propan-2-yl)phenoxy)methyl)pyrimidin-2-yl) methane sulfonamide, reference compound], the figures for the IC50 on AR and on AR V7 were 12.6 µM and over 20 µM, respectively.
`CC(C)(c1ccc(C#Cc2cnc(NS(C)(=O)=O)nc2)cc1)c1cc(Cl)c(OCCCl)c(C#N)c1` [Compound 60, N-(5-((4-(2-(3-chloro-4-(2-chloroethoxy)-5-cyanophenyl)propan-2-yl)phenyl)ethynyl)pyrimidin-2-yl)methanesulfonamide]: the IC50 was determined as 4.7 µM at AR and 8.9 µM at AR V7.
